For series [1], the system named is human cells, ovarian cancer cells, melanoma cells, cells infected with viruses, normal fibroblasts, normal bone marrow cells, leukemic cells and normal …. The series can be described thus: Inhibition of the action of the mixture of solasodine glycosides by free sugars and sugars bound to bovine serum albumin. It counts as cell-based. The settings on record: free sugar and bound to bovine serum albumin.

The next series concerns fibroblasts. The series is described as follows: Solamargine cytotoxicity in presence and absence of carbohydrates, fibroblasts. The settings on record: fibroblasts. The format is cell-based, human. How it is done: (§1) A mixture of solasodine glycosides (BEC), of which the active compound is solamargine and from which the aglycone solasodine is derived was prepared for use in cytotoxicity assays as determined by the uptake of tritiated thymidine. Inhibition studies were carried out with lactose, lactosyl-albumin, galactose or rhamnose (Sigma Chemical Co., USA). All experimental replicates were related to their own controls. Total volume of replicates was 250 μl (carbohydrates added in 50 μl tissue culture media+10% fetal calf serum), and the cell concentrations were 8×10^4 /ml.

A further series deals with Sarcoma 180. The series can be described thus: Survival of mice with Sarcoma 180, with and without rhamnose. The format is in vivo. How it is done: Herston White mice with a body weight of approximately 30 g and aged 8-10 weeks served as recipients. Twelve mice were randomly chosen for each experimental group.
Sarcoma 180 tumour cells (5×10^5) were inoculated intraperitoneally into mice. This caused a mortality of 100% with a median survival time of 20 days in the control groups. A standard mixture of glycoalkaloids (BEC) was dissolved in dimethylsulfoxide at a concentration of 0.5 g BEC/100 ml dimethylsulfoxide. Similar solutions were made up but also contained 0.3125, 0.625 and 0.9375 g of rhamnose. These solutions were administered intraperitoneally in concentrations of 8 mg/kg animal weight for BEC (FIG. 9) without (-.tangle-solidup.-), and with 5 mg (-.quadrature.-), 10 mg (-.cndot.-) and 15 mg (-Δ-) rhamnose/kg animal weight. The first dose was given 0.5 hours after administration of the Sarcoma 180 tumour cells. The remaining three doses were given at daily intervals. Dimethylsulfoxide and rhamnose had no effect on Sarcoma 180 activity in the absence of BEC (-.smallcircle.-).

In a further series the test system is unstimulated lymphocytes. The series is described as follows: DMG cytotoxicity with carbohydrates, unstimulated lymphocytes. It counts as cell-based, human. How it is done:
as §1

For series [2], the system named is Con A stimulated lymphocytes. The series is described as follows: DMG cytotoxicity with carbohydrates, Con A stimulated lymphocytes. The format is cell-based, human. How it is done: as §1
The test system of series [3] is ovarian cancer cells, HeLa cells, lymphoblastoid cells, fibroblasts. The series is described as follows: Cytotoxicity / inhibition of tritiated thymidine uptake, cell types taken together. The note with it: for inhibition of tritiated thymidine uptake / cytotoxicity (words): 11.3 μM/L, various cell types. How it is done:
(§2) The inhibition of cell replication by steroid alkaloids is determined by the inhibition of the incorporation of ^3 H thymidine into DNA. Using this technique, it should be possible to monitor any preferential inhibition of uptake of ^3 H thymidine by cancer cells.
(§3) Cells were maintained as monolayers in RPM1-1640 tissue culture media (Grant Island Biological Co) buffered with N-2-hydroxy-ethylpiperazine-N-2-ethanesulphonic acid pH 7.5 and supplemented with 10% heat inactivated fetal calf serum (FCS): (i) a human ovarian cancer cell line (C180-135), (ii) HeLa cells, (iii) human fibroblasts, and (iv) as a cell suspension of lymphoblastoid cells (EBV transformed lymphocytes). Monolayers were trypsinized to form a cell suspension. […] Cell concentration was adjusted to 2×10^5 cells/ml, and 2×10^4 cells were added in replicates of 10 to the wells (1×10^5 /ml well) of HA microtitre plates (Millipore Corp., USA). The cells were preincubated at 37.5° C. for 7 hours prior to the addition of 50 μl of the cytotoxic drug followed by the addition of 50 μl 5 uCi/ml of ^3 H thymidine, in the same tissue culture media 21 hours later. Incubation was continued for a total of 24 hours, which includes the pre-incubation time.
(§4) Appropriate DMSO cytotoxicity studies were also conducted. Solasodine glycosides were supplied as a mixture (BEC), and as separate components, solamargine, solasonine, a mixture of di- and mono-glycosides and the aglycone solasodine. All cytotoxic drugs were further diluted with HIFCS/TCM before testing. 5×10^4 ovarian cancer cells (200 μl/chamber of a chamber of microscope slide (Lab Tek Miles Scientific) were used. Controls received 50 μl HIFCS/TCM and experimental chambers 50 μl of solasodine glycosides (BEC) 1.5-3.8 μM/L after 7 hrs preincubation, and incubated for a further 3 hrs. Similarly, the cells were treated with the aglycone solasodine 19.4-96.8 μM/L. The cells were fixed and examined by the Papanicolaou method.

Series [4] has as its system ovarian cancer cells. The series is described as follows: Inhibition of tritiated thymidine uptake, ovarian cancer cells. The settings on record: Homo sapiens. How it is done: as §2, §3, §4
For series [5], the system named is unstimulated and stimulated lymphocytes. The settings on record: unstimulated and stimulated lymphocytes.
Experimental: (§5) This was cultured for 48 hours and pulsed with tritiated thymidine for a further 24 hours. In the inhibition studies, the cell concentration was 8×10^5 /ml.
(§6) All cells were harvested by vacuum filtration by washing in 250 μl of each of phosphate buffered saline, 5% trichloroacetic acid, 1.0M NaCl and 95% ethanol and subjected to β-scintillatian counting. Similarly, peripheral human blood lymphocytes were isolated and cultured 2×10^5 lymphocytes in CO2 1640TCM 10% HIFCS. Lymphocytes were stimulated with 20 μg/ml PHA, Con A or PWM, and cultured for 48 hrs followed by a 24 hr pulse. […] Cell concentrations were 8×10^4 /well total volume 250 μl. The dpm of the experimental replicates were expressed as a percentage of the mean value of the controls, and the mean value of the experimental replicates calculated.
Series [6] can be described thus: in vitro. The settings on record: human, con a stimulated lymphocytes.
Experimental: as §5, §6
A short description of series [7]: in vitro. The note with it: human, unstimulated lymphocytes.
Experimental: as §5, §6
Series [8] in a line: in vitro. The note with it: human, pwm stimulated lymphocytes.
Experimental: as §5, §6
A short description of series [9]: in vitro. The settings on record: human, pha stimulated lymphocytes.
Experimental: as §5, §6
Series [10] has as its system lymphoblastoid cells (EBV transformed lymphocytes). The series is described as follows: cells. The method, then: as §2, §3, §4
Another series concerns human fibroblasts. The series can be described thus: cells. How it is done: as §2, §3, §4
Series [11] concerns HeLa cells. The series can be described thus: cells. The method, then:
as §2, §3, §4

The test system of series [12] is ovarian cancer cells. The series can be described thus: Solamargine cytotoxicity in presence and absence of carbohydrates, ovarian cancer cells. The format is cell-based, human. The settings on record: ovarian cancer cells. The method, then: as §1
The subject of the next series is lymphoblastoid cells. The series is described as follows: Solamargine cytotoxicity in presence and absence of carbohydrates, lymphoblastoid cells. It counts as cell-based. The note with it: lymphoblastoid cells. How it is done: as §1
The test system of series [13] is HeLa cells. The series can be described thus: Solamargine cytotoxicity in presence and absence of carbohydrates, HeLa cells. It counts as cell-based, human. The note with it: HeLa cells. The method, then:
as §1

Read-outs that look alike come from different tables or passages of the source.

As to `CC(=O)NC1C(O)OC(CO)C(O)C1O` (centres unmarked) [NAc mannose], in [1], the “inhibitory effect on the action of the mixture of solasodine glycosides” value (shortened to “inhibitory effect on the action”) was “inhibitory effects”.
Still for that read-out and setting: for `CC(=O)N[C@@H]1C(O)O[C@H](CO)[C@@H](O)[C@@H]1O` (some centres unmarked) [NAc mannosamine] the value was “inhibitory effects”.
For the molecule rhamnose, in the series with fibroblasts, the “inhibition of solamargine cytotoxicity” value is given as “inhibition by rhamnose is also demonstrable”. In addition, the “effect on S180 activity in the absence of BEC” value in the series on Sarcoma 180 is given as “no effects”. Besides, the “inhibition of the efficacy of BEC” value in the series with Sarcoma 180 (mice with S180) is on record as “inhibits the efficacy of BEC”. In addition, the “inhibition of the action of DMG” value in the series on unstimulated lymphocytes is “do not inhibit DMG”; in [2], “inhibit the action of DMG”.
As for `C[C@H]1CC[C@@H]2[C@@H](C)[C@H]3[C@H](C[C@H]4[C@@H]5CC=C6C[C@@H](O[C@@H]7O[C@H](CO)[C@H](O)[C@H](O[C@@H]8O[C@H](CO)[C@@H](O)[C@H](O)[C@H]8O)[C@H]7O[C@@H]7O[C@@H](C)[C@H](O)[C@@H](O)[C@H]7O)CC[C@]6(C)[C@H]5CC[C@]34C)N2C1` [solanine], the “lysosomotropic/mitochondrial inhibition” value in series [3] is given as “lack of lysosomotropic/mitochondrial inhibition”.
With `CC(=O)N[C@H]1C(O)O[C@H](CO)[C@@H](O)[C@@H]1O` (some centres unmarked) [NAc glucosamine], the “inhibitory effect on the action” value in series [1] is listed as “inhibitory effects”.
In the case of `C[C@@H]1CC[C@@]2(NC1)O[C@H]1C[C@H]3[C@@H]4CC=C5C[C@@H](O[C@@H]6O[C@H](CO)[C@H](O)[C@H](O[C@@H]7O[C@H](CO)[C@@H](O)[C@H](O)[C@H]7O)[C@H]6O[C@@H]6O[C@@H](C)[C@H](O)[C@@H](O)[C@H]6O)CC[C@]5(C)[C@H]4CC[C@]3(C)[C@H]1[C@@H]2C` [Solasonine, solasonine], the viability at 11.3 µM is 93 ± 8% with ovarian cancer cells [4] (read-out: Percentage Cell Survival); 97 ± 7% in the series “in vitro [6]”; 97 ± 11.8% in the series “in vitro [7]”; 110 ± 3.8% in “in vitro [8]”; 103 ± 5.7% in the series “in vitro [9]”; 117 ± 8% in series [10] (Homo sapiens, Lymphoblastoid cell, read-out: Percentage Cell Survival). The viability at 11.3 µM in the series on human fibroblasts (Homo sapiens, Fibroblast, read-out: Percentage Cell Survival) turned out to be 96 ± 8.3%; with HeLa cells [11] (Homo sapiens, HeLa, read-out: Percentage Cell Survival), 105 ± 9.5%. The “cytotoxicity (words)” value in series [5] was “ineffective”; in series [5] (listed as solasonine) it was “absence of any effect”. Besides, the “inhibition of tritiated thymidine uptake / cytotoxicity (words)” value is reported as “ineffective” in series [3] and “not cytotoxic” in series [3] (listed as solasonine).
Regarding `OC[C@H]1O[C@@H](O[C@H]2[C@H](O)[C@@H](O)C(O)O[C@@H]2CO)[C@H](O)[C@@H](O)[C@H]1O` (some centres unmarked) [lactose, reference compound], the “inhibition of solamargine cytotoxicity” value is listed as “completely inhibited” with fibroblasts, “Partial inhibition” in the series on ovarian cancer cells [12], “partial inhibition” in the series on lymphoblastoid cells and “not inhibited” in the series on HeLa cells [13]. For the same molecule, the “inhibitory effect on the action” value in series [1] is recorded as “inhibitory effects”.
On to `CC[C@]1(O)C[C@@H]2CN(CCc3c([nH]c4ccccc34)[C@@](C(=O)OC)(c3cc4c(cc3OC)N(C)[C@H]3[C@@](O)(C(=O)OC)[C@H](OC(C)=O)[C@]5(CC)C=CCN6CC[C@]43[C@@H]65)C2)C1` [vinblastine, reference compound], for which the IC50 is 9.5 µM in the series on ovarian cancer cells [4] (read-out: LD50 (dose to inhibit 50% tritiated thymidine uptake)); 2.6 µM in [10] (human gammaherpesvirus 4, LCL, read-out: LD50 (dose to inhibit 50% tritiated thymidine uptake)); 1.9 µM in the series with human fibroblasts (Homo sapiens, Fibroblast, read-out: LD50 (dose to inhibit 50% tritiated thymidine uptake)); 2.7 µM with HeLa cells [11] (Homo sapiens, HeLa, read-out: LD50 (dose to inhibit 50% tritiated thymidine uptake)). The CC50 in the series “in vitro [6]” was 7.8 µM; in “in vitro [7]”, 11 µM; in “in vitro [8]”, 10.8 µM; in the series “in vitro [9]” it was 19.2 µM. Also, in series [3] (normal versus cancer cells), the “cytotoxicity to normal cells relative to cancer cells” value is given as “equally or more cytotoxic to normal cells relative to cancer cells”. Besides, the “TR50 (thymidine ratio relative to ovarian cancer cells)” value in [10] (LCL / OvCa) is 0.27; with human fibroblasts (FB / OvCa) it was 0.2; in the series on HeLa cells [11] (HeLa / OvCa), 0.28. Further, the “TR50 for fibroblasts/lymphoblastoid cells” value with human fibroblasts (fibroblasts/lymphoblastoid cells) was found to be 0.73.
As to galactose [reference compound], the “inhibition of solamargine cytotoxicity” value with fibroblasts is “completely inhibited”; with ovarian cancer cells [12] it was “partial inhibition”; with lymphoblastoid cells, “partial inhibition”; in the series on HeLa cells [13] it was “not inhibited”. In addition, in series [1], the “inhibitory effect on the action” value is “inhibitory effects”.
In the case of `O=C[C@@H](O)[C@@H](O)[C@H](O)[C@H](O)CO` [mannose], in [1], the “inhibitory effect on the action” value is recorded as “inhibitory effects”.
As for `CC(=O)N[C@@H]1[C@@H](O)[C@H](O)[C@@H](CO)O[C@@H]1O` [NAc glucose], in series [1], the “inhibitory effect on the action” value is recorded as “inhibitory effects”.
Regarding `O=C[C@H](O)[C@@H](O)[C@H](O)[C@H](O)CO` [glucose], the “inhibitory effect on the action” value in series [1] was “inhibitory effects”. Further, the “effect on S180 activity in the absence of BEC” value with Sarcoma 180 is reported as “no effects”. The results for the “inhibition of the action of DMG” value (in the series on unstimulated lymphocytes; in series [2]) were “do not inhibit DMG” and “inhibit the action of DMG”, respectively.

These data come from patent publication US5958770A, “Glycoalkaloids” (priority 1990, dated 1999).
